This note sets out measurements from US5436229A, “Bisulfite adducts of arginine aldehydes” (Eli Lilly and Company, priority 1994, dated 1995).

Non-standard residues stand in square brackets, D forms with d. Residues, ends and D or L forms follow the SMILES beside them. dNMeCha = CN[C@H](CC1CCCCC1)C(=O)O

The target in one data set is human thrombin (Homo sapiens, UniProt P00734). The data set is described as follows: Thrombin amidase inhibition (Kass), chromogenic substrate. The format is biochemical. The essentials: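 Purified human thrombin (8 NIH units/ml solution) mixed with compound in 50% aqueous methanol and 0.03M Tris, 0.15M NaCl, pH 7.4; chromogenic substrate (0.25 mg/ml solution) added, p-nitroaniline release followed at 405 nm. Free thrombin read from a standard curve; Kass (L/mol) is the mean over a range of compound concentrations.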

The next data set deals with T1, Human plasmin (Homo sapiens, UniProt P00747).
T1 construct: Human plasmin is purchased from Boehringer Mannheim; purchased Boehringer Mannheim, Indianapolis, Ind
The data set is described as follows: Serine protease inhibition (Kass), plasmin. In kind it is biochemical. The essentials:
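Chromogenic enzyme assays run as for human thrombin, giving association constants (Kass). Human plasmin used with H-D-Val-Leu-Lys-p-nitroanilide; t-PA (single-chain nt-PA or modified mt-PA6) with H-D-Ile-Pro-Arg-p-nitroanilide.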

A further data set addresses T2, Bovine trypsin (Bos taurus, UniProt P00760).
T2 construct: Bovine trypsin is purchased from Worthington Biochemicals; purchased Worthington Biochemicals, Freehold, N.J
T2 sequence (P00760 24-246): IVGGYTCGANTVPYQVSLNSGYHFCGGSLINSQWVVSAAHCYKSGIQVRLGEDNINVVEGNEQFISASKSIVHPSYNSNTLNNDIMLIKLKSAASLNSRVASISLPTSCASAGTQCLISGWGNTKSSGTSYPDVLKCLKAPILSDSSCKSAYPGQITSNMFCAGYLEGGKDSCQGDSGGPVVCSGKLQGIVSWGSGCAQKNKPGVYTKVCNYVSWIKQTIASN
The experiment in a line: Serine protease inhibition (Kass), trypsin. In kind it is biochemical. The essentials:
(§1)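 Chromogenic p-nitroanilide substrate assays run as for human thrombin; trypsin with N-Benzoyl-Phe-Val-Arg-p-nitroanilide, human factor Xa with N-Benzoyl-Ile-Glu-Gly-Arg-p-nitroanilide. Values are association constants (Kass).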

A short description of data set [1]: Index of Bioavailability (plasma TT AUC, oral vs i.v.). The format is in vivo. The conditions noted are these: rats, oral vs i.v. bolus. From the text: Assays are done in duplicate and averaged.
Each sample population represents alternating sequential time points.

Data set [2] deals with T3, tissue plasminogen activator (t-PA) (Homo sapiens, UniProt P00750).
T3 construct: purchased American Diagnostica, Greenwich, Conn
The data set is described as follows: Serine protease inhibition (Kass), t-PA. The format is biochemical.

The target in a further data set is T4, factor Xa (Homo sapiens, UniProt P00742).
T4 construct: Human factors X, Xa, IXa, XIa, and XIIa are purchased from Enzyme Research Laboratories; purchased Enzyme Research Laboratories, South Bend, Ind
The experiment in a line: Serine protease inhibition (Kass), factor Xa. The format is biochemical. The essentials: as §1

For data set [3], the system named is human plasma. The data set is described as follows: Human plasma anticoagulation, prothrombin time (PT). In kind it is biochemical. The essentials:
(§2)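 Compounds added across a wide concentration range to human plasma; APTT, PT and TT clotting times measured on a coagulation instrument, bovine thrombin used for plasma assays. Concentration doubling clotting time estimated by linear extrapolation.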

Data set [4] concerns human plasma. The data set is described as follows: Human plasma anticoagulation, activated partial thromboplastin time (APTT). In kind it is biochemical. The essentials:
as §2

T1 sequence (P00747 581-810 limits assumed): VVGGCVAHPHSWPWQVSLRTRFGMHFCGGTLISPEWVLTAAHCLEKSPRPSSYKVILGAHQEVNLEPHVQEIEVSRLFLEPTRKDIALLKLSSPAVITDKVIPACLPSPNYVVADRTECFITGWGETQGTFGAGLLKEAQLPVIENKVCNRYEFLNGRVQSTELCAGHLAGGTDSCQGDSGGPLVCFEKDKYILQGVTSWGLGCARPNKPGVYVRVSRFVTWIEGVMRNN
T1 sequence (P00747 97-580 partner limits assumed): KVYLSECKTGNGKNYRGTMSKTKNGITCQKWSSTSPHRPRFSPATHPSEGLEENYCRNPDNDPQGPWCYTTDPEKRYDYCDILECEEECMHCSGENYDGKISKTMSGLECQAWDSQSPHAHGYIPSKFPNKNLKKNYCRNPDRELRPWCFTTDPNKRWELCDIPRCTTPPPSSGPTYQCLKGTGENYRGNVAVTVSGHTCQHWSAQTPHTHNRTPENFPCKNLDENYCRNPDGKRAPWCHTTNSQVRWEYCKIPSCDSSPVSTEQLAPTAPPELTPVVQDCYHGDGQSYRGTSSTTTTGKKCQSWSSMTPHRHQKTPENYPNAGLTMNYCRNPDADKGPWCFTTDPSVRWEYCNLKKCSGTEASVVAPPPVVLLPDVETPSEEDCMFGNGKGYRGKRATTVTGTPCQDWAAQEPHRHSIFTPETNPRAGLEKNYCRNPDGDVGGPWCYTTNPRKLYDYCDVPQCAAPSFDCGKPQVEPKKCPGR
T3 sequence (P00750 36-562): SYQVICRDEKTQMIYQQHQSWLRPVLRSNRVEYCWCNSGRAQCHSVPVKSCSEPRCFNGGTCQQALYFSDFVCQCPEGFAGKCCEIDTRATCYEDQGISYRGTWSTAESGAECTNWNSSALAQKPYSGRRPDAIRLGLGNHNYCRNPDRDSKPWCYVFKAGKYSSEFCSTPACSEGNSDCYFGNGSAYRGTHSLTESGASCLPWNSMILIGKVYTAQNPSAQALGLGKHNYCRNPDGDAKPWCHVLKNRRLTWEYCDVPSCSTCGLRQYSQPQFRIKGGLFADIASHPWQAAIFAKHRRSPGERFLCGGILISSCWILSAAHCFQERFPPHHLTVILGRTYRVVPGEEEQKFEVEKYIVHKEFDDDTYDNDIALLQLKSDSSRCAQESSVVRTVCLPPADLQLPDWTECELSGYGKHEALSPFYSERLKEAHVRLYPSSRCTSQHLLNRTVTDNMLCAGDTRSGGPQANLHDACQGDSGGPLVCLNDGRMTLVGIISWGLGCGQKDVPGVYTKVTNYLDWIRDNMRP
T4 sequence (P00742 235-488 limits assumed): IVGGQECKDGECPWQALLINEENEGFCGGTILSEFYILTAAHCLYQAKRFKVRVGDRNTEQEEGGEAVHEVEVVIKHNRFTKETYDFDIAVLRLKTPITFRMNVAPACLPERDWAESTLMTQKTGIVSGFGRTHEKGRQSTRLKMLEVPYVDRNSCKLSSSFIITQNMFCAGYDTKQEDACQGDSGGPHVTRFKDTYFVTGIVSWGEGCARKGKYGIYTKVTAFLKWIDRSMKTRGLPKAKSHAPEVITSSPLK
T4 sequence (P00742 41-179 partner limits assumed): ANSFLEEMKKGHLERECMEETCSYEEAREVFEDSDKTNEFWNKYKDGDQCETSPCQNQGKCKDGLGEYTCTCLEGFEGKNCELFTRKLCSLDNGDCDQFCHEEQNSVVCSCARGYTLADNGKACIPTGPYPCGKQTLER

On to `N=C(N)NCCCC(C=O)NC(=O)C1CCCN1C(=O)C1CC2CCCCC2CN1.O=S(=O)(O)O` [80 (Step F), D-3-(cis)Piq-Pro-Arg-H.H2 SO4], for which the “Kass Human Thrombin” value at human thrombin amounted to 56 L/mol × 10^6. Besides, on Human plasmin, the “Kass Plasmin” value was determined as 1.6 L/mol × 10^6. For the same compound, the “Kass Trypsin” value on Bovine trypsin was 183 L/mol × 10^6. Besides, in data set [1], the “Percent Relative Activity (Index of Bioavailability)” value was found to be 46%. In addition, the “Kass t-PA” value in data set [2] is 0.5 L/mol × 10^6.
Take `CN[C@H](CC1CCCCC1)C(=O)N1CCC[C@H]1C(=O)N[C@H](C=O)CCCNC(=N)N.Cl` [Example 75, N-methyl-D-cyclohexylalanyl-L-Prolinyl-L-Arginine Aldehyde Hydrochloride] (H-[dNMeCha]-Pro-Arg-aldehyde): at human thrombin, the “Kass Human Thrombin” value was 590 L/mol × 10^6. In addition, the “Kass Plasmin” value on Human plasmin is 7.7 L/mol × 10^6. In addition, the “Kass Trypsin” value on Bovine trypsin is listed as 160 L/mol × 10^6. Moreover, the “Percent Relative Activity (Index of Bioavailability)” value in data set [1] came to 13%. In addition, on factor Xa, the “Kass Xa” value is given as 5.6 L/mol × 10^6. In addition, the “Kass t-PA” value in data set [2] was determined as 0.37 L/mol × 10^6. Moreover, in the data set on human plasma [3], the “2 × Clotting time PT” value worked out at 720 ng/mL. In addition, the “2 × Clotting time APTT” value in the data set with human plasma [4] was 420 ng/mL.
